Like-named read-outs stand apart in the source and are kept apart here.
Tests used:
MOLM-13 human AML cells = settings: ref Viktorsson et al.[26], cited from earlier work
[1] = test system: NRK (normal rat kidney epithelial) cells; experiment: Cytotoxicity; format: cell-based; settings: for EC50: ±SEM; for Selectivity towards leukemic cells compared with NRK cells (factor): MOLM-13 vs NRK
Solubility observation = format: physicochemical; settings: cell media / DMSO
[2] = read-out: EC50 (μM) MOLM-13 2% O2, 2% O2, ±SEM
[3] = read-out: EC50 (μM) MOLM-13 19% O2, 19% O2, ±SEM
[4] = read-out: EC50 (μM) NRK 2% O2, 2% O2, 24 h exposure
[5] = read-out: EC50 (μM) NRK 19% O2, 19% O2, 24 h exposure

In the case of [O-][n+]1c2cccc(O)c2[n+]([O-])c2cccc(O)c21 [Compound 3, 1,6-dihydroxyphenazine 5,10-dioxide], the EC50 (MOLM-13 human AML cells; [2]) is given as 0.79 ± 0.1 µM, the EC50 (MOLM-13 human AML cells; [3]) is given as 2 ± 0.07 µM and the EC50 [1, 4] is given as > 50 µM.
In the case of COc1cccc2c1[n+]([O-])c1cccc(O)c1[n+]2[O-] [Compound 4, 1-hydroxy-6-methoxyphenazine 5,10-dioxide], the EC50 (MOLM-13 human AML cells; [2]) is given as 0.77 ± 0.13 µM, the EC50 (MOLM-13 human AML cells; [3]) is given as 1.4 ± 0.3 µM and the “Selectivity towards leukemic cells compared with NRK cells (factor)” value ([1]; hypoxic conditions (2% O2)) is given as “around 100”.
In the case of CCOC(=O)COc1cccc2c1[n+]([O-])c1cccc(O)c1[n+]2[O-] [Compound 7, 1-hydroxy-6-(2-ethoxy-2-oxoethoxy) phenazine 5,10-dioxide], the EC50 (MOLM-13 human AML cells; [2]) is given as 0.49 ± 0.12 µM and the EC50 (MOLM-13 human AML cells; [3]) is given as 0.57 ± 0.06 µM.
For Nc1n[n+]([O-])c2ccccc2[n+]1[O-] [Compound 10, 3-amino-1,2,4-benzotriazine 1,4-dioxide], the EC50 (MOLM-13 human AML cells; [2]) is listed as 22 ± 2 µM, the EC50 (MOLM-13 human AML cells; [3]) is listed as 95 ± 8 µM and the EC50 [1, 5] is listed as > 100 µM.
For CCOC(=O)Oc1cccc2c1[n+]([O-])c1cccc(OC(=O)OCC)c1[n+]2[O-] [Compound 14], the EC50 [1, 4] was > 25 µM.
For [O-][n+]1c2ccccc2[n+]([O-])c2c(O)cccc21 [Compound 21, 1-Hydroxyphenazine 5,10-dioxide], the EC50 [1, 4] was > 100 µM.
With Cc1cc2c(cc1C)[n+]([O-])c1c(O)cccc1[n+]2[O-] [Compound 44, 7,8-Dimethyl-1-hydroxyphenazine 5,10-dioxide] the EC50 [1, 4] was > 50 µM.
For [O-][n+]1c2cc3ccccc3cc2[n+]([O-])c2c(O)cccc21 [Compound 45], the Solubility (Solubility observation) was “practically insoluble”.
With CCOC(=O)COc1cccc2c1[n+]([O-])c1cc(C)c(C)cc1[n+]2[O-] [Compound 48] the EC50 [1, 4] was > 100 µM and the EC50 [1, 5] was 140 ± 2 µM.
For CN1CCN(C(=O)Oc2cccc3c2[n+]([O-])c2cc(Cl)c(Cl)cc2[n+]3[O-])CC1 [Compound 54], the “Selectivity towards leukemic cells compared with NRK cells (factor)” value ([1]; 19% O2) was “more than 30”.
